Reference: patent publication US7399784B2, “Tocopherol and tocotrienol anti-obesity medicaments” (Children's Hospital & Research Center at Oakland, priority 2002, dated 2008)

Legend:
[1] = treatment of diabetes; Malinowski et al. 2000; cited from earlier work
[2] = test system: embryonic cell (C3H10T1/2); experiment: Adipocyte differentiation of C3H10T1/2 cells induced with insulin plus drugs; assay type: cell-based; conditions: differentiation induced with insulin plus indomethacin, troglitazone or 15-deoxy-delta(12,14)-prostaglandin-J2
Source text: For these example, differentiation was induced in the presence of insulin with drugs, including indomethacin, and troglitazone, one of the anti-diabetes drugs of the thiazolidinedione family, as well as 15-deoxy-delta (12, 14)-prostaglandin-J2, a putative endogenous ligand for the peroxisome proliferator-activated receptor-gamma. Our results clearly indicate that tocopherols and tocotrienols inhibit adipogenesis.

adipocytes = experiment: Weight gain and adipocyte triglyceride accumulation in mice fed a high-fat diet; assay type: in vivo, BALB/c mice; conditions: food admixture 0.1%, 3%, 0.02% or 0.01%
Method: We evaluate weight gain and triglyceride accumulation in adipocytes in mice fed a high-fat diet. Six-week-old BALB/c mice are fed powdered chow with various tocopherols and tocotrienols and mixtures thereof, as 0.1%, 3%, 0.02%, or 0.01% food admixtures. For histological analysis of adipose and hepatic tissues and determination of adipocyte size, adipose tissue is removed from each animal and fixed in 10% formaldehyde/PBS and maintained at 4° C. until use. Fixed specimens are dehydrated, embedded in tissue-freezing medium and frozen in dry ice and acetone. White adipose tissue is cut into 10-μm sections, and the sections mounted on silanized slides. The adipose tissue is stained with hematoxylin and eosin (H&E). Mature white adipocytes are identified by their characteristic […] appearance. Total adipocyte areas are traced manually and analyzed with Win ROOF software (Mitani Co. Ltd., Chiba, Japan). White adipocyte areas are measured in 400 or more cells per mouse in each group according to methods previously described (Kubota, N. et al.1999, Mol. Cell. 4:597-609).

leptin = conditions: healthy individuals; Ismermann et al. 1999; cited from earlier work
insulin-secreting cells = conditions: Sjoholm et al. 2000; cited from earlier work

Compound | weight gain and obesity [1] | anti-adipogenesis activity (inhibition of differentiation to adipocytes) [2] | intracellular triglyceride accumulation [2] | triglyceride accumulation in adipocytes (adipocytes) | weight gain (adipocytes) | leptin expression (leptin) | protection against functional inhibition by nitric oxide (insulin-secreting cells)
CN(CCOc1ccc(CC2SC(=O)NC2=O)cc1)c1ccccn1 (stereo not drawn) [rosiglitazone] | commonly leads to weight gain and obesity |  |  |  |  |  | 
Cc1cc(O)cc2c1O[C@](C)(CCC[C@H](C)CCC[C@H](C)CCCC(C)C)CC2 [delta-T, delta-tocopherol] |  | dose-dependent anti-adipogenesis activity | decrease intracellular triglyceride accumulation | reduced triglyceride accumulation in adipocytes | reduced weight gain |  | 
CC(C)=CCC/C(C)=C/CC/C(C)=C/CC[C@]1(C)CCc2cc(O)cc(C)c2O1 [delta-tocotrienol] |  | dose-dependent anti-adipogenesis activity | decrease intracellular triglyceride accumulation | reduced triglyceride accumulation in adipocytes | reduced weight gain |  | 
alpha-tocotrienol |  | dose-dependent anti-adipogenesis activity | decrease intracellular triglyceride accumulation | reduced triglyceride accumulation in adipocytes | reduced weight gain |  | 
Cc1c(C)c2c(c(C)c1O)CCC(C)(COc1ccc(CC3SC(=O)NC3=O)cc1)O2 (stereo not drawn) [troglitazone] | commonly leads to weight gain and obesity |  |  |  |  |  | 
CC(C)=CCC/C(C)=C/CC/C(C)=C/CC[C@]1(C)CCc2cc(O)c(C)c(C)c2O1 [gamma-tocotrienol] |  | dose-dependent anti-adipogenesis activity | decrease intracellular triglyceride accumulation | reduced triglyceride accumulation in adipocytes | reduced weight gain |  | 
CCc1ccc(CCOc2ccc(CC3SC(=O)NC3=O)cc2)nc1 (stereo not drawn) [proglitazone] | commonly leads to weight gain and obesity |  |  |  |  |  | 
Cc1c(C)c2c(c(C)c1O)CC[C@@](C)(CCC[C@H](C)CCC[C@H](C)CCCC(C)C)O2 [alpa-T, alpha-tocopherol, reference compound] |  | much less effective | much less effective |  |  | induces leptin expression | 
Cc1c(O)cc2c(c1C)O[C@](C)(CCC[C@H](C)CCC[C@H](C)CCCC(C)C)CC2 [gamma-T, gamma-tocopherol] |  | dose-dependent anti-adipogenesis activity | decrease intracellular triglyceride accumulation | reduced triglyceride accumulation in adipocytes | reduced weight gain |  | partially protects
